Assay [1] relates to Nα,Nε-diacetyl-L-Lys-D-Ala-D-Ala tripeptide. The experiment in a line: Isothermal titration calorimetry (ITC) equilibrium binding of GPAs to the tripeptide ligand. Particulars: for ΔG: Experiment (ITC). For orientation: In ITC the heat of successive injections is recorded.
Assay [2] concerns diverse Gram-positive bacteria. The settings on record: cited from earlier work.
The test system of a further assay is C. difficile infection. Particulars: compared to metronidazole and vancomycin; cited from earlier work.
In a further assay the target is tripeptide ligand. The settings on record: cited from earlier work.
Assay [3] relates to C. difficile P8. The experiment in a line: MIC by agar dilution method (CLSI). In kind it is cell-based, Clostridium difficile. Here is the method: Minimal inhibitory concentrations (MICs) were determined by the agar dilution method following the guidelines of the Clinical and Laboratory Standards Institute (CLSI). […] The effect of vancomycin in combination with keratinicyclin B against C. difficile P8 was assessed by the checkerboard agar dilution method. […] The antibiotic agar plates were prereduced in an anaerobic container prior to inoculation. […] To avoid the selection of an atypical variant, five colonies were suspended in prereduced Gifu anaerobic broth and grown to a density equivalent to a 0.5 McFarland standard (1-2×10^8 cfu/mL). […] After incubating anaerobically at 37° C. for 48 h, the plates were inspected for bacterial growth. The MIC was defined as the lowest concentration of antibiotic leading to no growth, one colony, or a fine haze.
On the technique in general: In agar dilution the substance is mixed into plates at graded concentrations.

Assay [4] has as its system C. difficile P8. The experiment in a line: Checkerboard agar dilution of vancomycin in combination with keratinicyclin B. In kind it is cell-based, Clostridium difficile. Here is the method:
Minimal inhibitory concentrations (MICs) were determined by the agar dilution method following the guidelines of the Clinical and Laboratory Standards Institute (CLSI). […] The effect of vancomycin in combination with keratinicyclin B against C. difficile P8 was assessed by the checkerboard agar dilution method. […] The antibiotic agar plates were prereduced in an anaerobic container prior to inoculation. […] To avoid the selection of an atypical variant, five colonies were suspended in prereduced Gifu anaerobic broth and grown to a density equivalent to a 0.5 McFarland standard (1-2×10^8 cfu/mL). Once the appropriate cell density was reached, the prereduced antibiotic agar plates were inoculated (10^5 cfu/spot). After incubating anaerobically at 37° C. for 48 h, the plates were inspected for bacterial growth. The MIC was defined as the lowest concentration of antibiotic leading to no growth, one colony, or a fine haze. […] The combination effect was defined as synergistic when ΣFIC≤0.5, additive when 0.5<ΣFIC≤1, indifferent when 1<ΣFIC≤2, and antagonistic when ΣFIC>2.

Another assay relates to selected gut bacteria. Kind of assay: Antimicrobial susceptibility profile of selected gut bacteria. Format: cell-based.
The test system of assay [5] is Clostridium difficile, Strain P8. The description is as above. In kind it is cell-based. The settings on record: drug alone.
Assay [6] relates to Clostridium perfringens, Strain WAL-14572. In kind it is cell-based. Particulars: drug alone.
Assay [7] has as its system Ruminococcus lactaris, Strain CC59_002D, HM-1057. Kind of assay: Antimicrobial susceptibility profile of selected gut bacteria. In kind it is cell-based. Particulars: drug alone.
The subject of a further assay is C. difficile. Particulars: cited from earlier work.
Where [8] appears, read: ITC, 25° C., 0.1 M sodium phosphate buffer, pH 7.

≈ marks a conversion by molar mass, not a printed value. Like-named read-outs stand apart in the source and are kept apart here.

keratinimicin A yielded a ΔG in [1] of -7.9 kcal/mol. Further, in [1] (ITC, 25° C., pH 7), the TΔS amounted to 0.85 kcal/mol. The Kd (usually a measure of binding affinity in units of concentration) in assay [1] (ITC, 25° C., pH 7, unit inferred) is 1.7 ± 0.3 µM. The spectrum of activity entry in assay [2] was “broad-spectrum activity against diverse Gram-positive bacteria”.
Turning to `CCc1c(Cl)c(O)c(Cl)c(O)c1C(=O)O[C@H]1[C@H](O)[C@H](OC)[C@H](OC/C2=C\C=C\C[C@H](O)/C(C)=C/[C@H](CC)[C@@H](O[C@@H]3OC(C)(C)[C@@H](OC(=O)C(C)C)[C@H](O)[C@@H]3O)/C(C)=C/C(C)=C/C[C@@H]([C@@H](C)O)OC2=O)O[C@@H]1C` [fidaxomicin], in the assay on C. difficile infection, the recurrence rates result was “halves recurrence rates”.
Take `C[C@@H]1O[C@@H](O[C@H]2[C@H](Oc3c4cc5cc3Oc3ccc(cc3Cl)[C@@H](O)[C@@H](N)C(=O)N[C@@H](CC(N)=O)C(=O)N[C@H]5C(=O)N[C@H]3C(=O)N[C@H](C(=O)N[C@H](C(=O)O)c5cc(O)cc(O)c5-c5cc3ccc5O)[C@H](O)c3ccc(c(Cl)c3)O4)O[C@H](CO)[C@@H](O)[C@@H]2O)C[C@](C)(N)[C@@H]1O` [desleucyl-1]: the Kd on tripeptide ligand (Experiment section of Table 2, reported value) was roughly 20000 µM; on tripeptide ligand (reported experimental value), roughly 20000 µM. The “binding of the tripeptide ligand” value with tripeptide ligand (N-terminal N-Me-D-Leu removed by Edman degradation) is “does not bind the tripeptide ligand”.
As for `CO[C@H]1[C@H](C)O[C@@H](O[C@@H]2c3ccc(c(Cl)c3)Oc3cc4cc(c3O[C@@H]3O[C@H](CO)[C@@H](O)[C@H](O)[C@H]3O[C@H]3C[C@H](N)[C@@H](O)[C@H](C)O3)Oc3ccc(cc3)[C@H]3OC(=O)N[C@H]3C(=O)N[C@@H](Cc3ccccc3)C(=O)N[C@H]4C(=O)N[C@H]3C(=O)N[C@@H]2C(=O)N[C@H](C(=O)O)c2cc(O)cc(O[C@H]4O[C@H](CO)[C@@H](O)[C@H](O)[C@@H]4O)c2-c2cc3ccc2O)C[C@@H]1N` [keratinicyclin B], the “binding of the tripeptide” value in assay [1] (ITC, several concentrations tested) is on record as “did not bind the tripeptide”. Moreover, in [1] (ITC, estimated based on the sensitivity of the setup), the Kd is greater than 500 µM. The MIC (in general, the lowest concentration found to suppress growth) with C. difficile P8 [3] (alone, anaerobic, 37° C., 48 h) was found to be 4 µg/mL. Also, the Checkerboard analysis result in the assay with C. difficile P8 [4] (keratinicyclin B 4 μg/mL + vancomycin 0 μg/mL) and with C. difficile P8 [4] (keratinicyclin B 8 μg/mL + vancomycin 0 μg/mL) was “I (I = indifference)” throughout. The “spectrum of antibacterial activity” value in the assay on selected gut bacteria (each drug alone, FIG. 5) is “narrower spectrum of antibiotic activity”. The growth inhibition entry in assay [5], in [6] and in assay [7] was “inhibiting the growth” throughout. The “minimal inhibitory concentration (MIC)” value in the assay with C. difficile (previous bioactivity data) was 9.8 µM (≈ 16.1 µg/mL). Besides, in the assay with C. difficile (previously shown), the spectrum of activity entry was “narrow-spectrum activity against C. difficile”.
`CN[C@H](CC(C)C)C(=O)N[C@H]1C(=O)N[C@@H](CC(N)=O)C(=O)N[C@H]2C(=O)N[C@H]3C(=O)N[C@H](C(=O)N[C@H](C(=O)O)c4cc(O)cc(O)c4-c4cc3ccc4O)[C@H](O)c3ccc(c(Cl)c3)Oc3cc2cc(c3O[C@@H]2O[C@H](CO)[C@@H](O)[C@H](O)[C@H]2O[C@H]2C[C@](C)(N)[C@H](O)[C@H](C)O2)Oc2ccc(cc2Cl)[C@H]1O` [vancomycin]: in [1], the ΔG is -7.6 kcal/mol. In assay [1] (setting [8]), this molecule displayed a Kd of 2.7 ± 0.4 µM. Further, in assay [1] (ITC, 25° C., pH 7), the TΔS was -0.96 kcal/mol and the ΔH is -8.6 ± 0.5 kcal/mol. Besides, the minimum inhibitory concentration (MIC) in the assay on C. difficile P8 [3] (Clostridioides difficile, P8, 48 h) came to 1 µg/mL. Moreover, in the assay on selected gut bacteria, the “spectrum of antibacterial activity” value is on record as “broad-spectrum antibacterial activity against all tested Gram-positive bacteria”.
Consider keratinimicin C, for which binding in assay [1] (setting [8]) was characterised by a dissociation constant (Kd) of 2.8 ± 0.3 µM. In [1] (ITC, 25° C., pH 7), this molecule came in with a TΔS of 0.2 kcal/mol and a ΔH of -7.4 ± 0.3 kcal/mol.

Source of the values: patent US12533389B2, “Glycopeptide antibiotic combination therapy” (The Trustees of Princeton University, priority 2021, dated 2026).
